Measurements taken from US20100298602A1, “SYSTEMS AND METHODS FOR MICROFLUIDIC CRYSTALLIZATION” (Massachusetts Institute of Technology, priority 2009, published 2010).
Blank lines part the entries; values can stand above or below the molecule they belong to.

Test: Seeded continuous crystallization in a microfluidic device; growth rates from optical images
Settings: room temperature, water/ethanol antisolvent
[1] = Supersaturation S = ln(C/Cs,γ) = 0.319

G<010>,exp growth rate of <010> crystal plane (S = ln(C/Cs,α) = 0.33): 0.40 ± 0.25 μm/min | G<011>, exp growth rate of <011> crystal plane (S = ln(C/Cs,α) = 0.33): 2.22 ± 0.91 μm/min | G<010>,exp growth rate of <010> crystal plane (S = ln(C/Cs,α) = 0.56): 0.74 ± 0.16 μm/min | G<011>, exp growth rate of <011> crystal plane (S = ln(C/Cs,α) = 0.56): 3.34 ± 0.43 μm/min | G<010>,exp growth rate of <010> crystal plane (S = ln(C/Cs,α) = 0.64): 0.66 ± 0.23 μm/min | G<011>, exp growth rate of <011> crystal plane (S = ln(C/Cs,α) = 0.64): 4.78 ± 1.35 μm/min
SMILES: NCC(=O)O [α-Glycine, glycine]

G<00-1>,exp growth rate [1]: 4.4 ± 1.8 μm/min | G{100, 010},exp growth rate [1]: 3.2 ± 1.6 μm/min | G{100, 010},exp growth rate (Supersaturation S = ln(C/Cs,γ) = 0.389): 5.5 ± 1.6 μm/min
SMILES: NCC(=O)O [γ-Glycine, glycine]

G<010> experimental growth rate (S = ln(C/Cs,α) = 0.30): 194 ± 55 μm/min | G<010> experimental growth rate (S = ln(C/Cs,α) = 0.39): 235 ± 43 μm/min | G<010> experimental growth rate (S = ln(C/Cs,α) = 0.47): 250 ± 52 μm/min
SMILES: NCC(=O)O [β-Glycine, glycine]
